Assay [1] addresses T1, angiotensin II type 1 receptor (AT1R) (Homo sapiens, UniProt P30556).
T1 construct: host or cells: HEK293
T1 sequence (P30556 1-359): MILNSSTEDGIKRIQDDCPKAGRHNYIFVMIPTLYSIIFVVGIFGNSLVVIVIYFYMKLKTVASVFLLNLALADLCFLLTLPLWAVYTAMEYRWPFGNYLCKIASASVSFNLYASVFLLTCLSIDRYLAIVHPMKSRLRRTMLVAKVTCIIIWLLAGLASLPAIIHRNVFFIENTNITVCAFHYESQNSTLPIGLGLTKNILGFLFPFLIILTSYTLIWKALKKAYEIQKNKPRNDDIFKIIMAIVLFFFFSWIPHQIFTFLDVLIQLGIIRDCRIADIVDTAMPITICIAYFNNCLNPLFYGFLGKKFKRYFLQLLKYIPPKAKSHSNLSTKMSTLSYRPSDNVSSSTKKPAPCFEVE
The assay is described as follows: Ligand profiling with the βγIP-based BRET biosensor, AT1R with Gαq or Gα12. The format is cell-based. The following applies: Gα12 versus Gαq, FIG. 8C. Here is the method:
Cell culture and transfections. Human embryonic kidney 293 (HEK293) cells were maintained in Dulbecco's Modified Eagle's Medium (DMEM) supplemented with 10% fetal bovine serum, 100 unit/ml penicillin/streptomycin at 37° C. in a humidified atmosphere with 5% CO2. Two days before the experiments, HEK293 cells were transfected with the indicated plasmids using poly-ethylenimine 25-kDa linear (PEI) as a transfecting agent (at a ratio of 3 to 1, PEI/DNA) (Hamdan, Rochdi et al. 2007), and then directly seeded in 96-well plates pre-treated with poly-L-ornithine hydrobromide or Poly-D-Lysine, at a density of 35,000 cells per well (for BRET and PCA assays in living cells), or 6-well plates at a density of 1,000,000 cells per well (for BRET assays on membrane preparations).
(§1) BRET assays in living cells. […] BRET values were then collected using a Mithras™ LB940 Multimode Microplate Reader or a TRISTAR® LB942 Multimode Microplate Reader, equipped with the following filters: 400 nm±70 nm (energy donor) and 515 nm±20 nm (energy acceptor). BRET values were determined by calculating the ratio of the light emitted by GFP (515 nm) over the light emitted by the Rluc (400 nm). To determine the % of activation (Stim as % of basal), BRET values obtained for the agonist treated cells where expressed as a percentage of the BRET values obtained with the corresponding cells treated with vehicle.
On the technique in general: In BRET a luciferase serves as donor, and the signal depends on an acceptor being close.

Another assay concerns the target T2, GαqF75G (Homo sapiens, UniProt P50148, F75G).
T2 construct: expressed in transfected cells; host or cells: HEK293
T2 sequence (P50148 1-359 F75G): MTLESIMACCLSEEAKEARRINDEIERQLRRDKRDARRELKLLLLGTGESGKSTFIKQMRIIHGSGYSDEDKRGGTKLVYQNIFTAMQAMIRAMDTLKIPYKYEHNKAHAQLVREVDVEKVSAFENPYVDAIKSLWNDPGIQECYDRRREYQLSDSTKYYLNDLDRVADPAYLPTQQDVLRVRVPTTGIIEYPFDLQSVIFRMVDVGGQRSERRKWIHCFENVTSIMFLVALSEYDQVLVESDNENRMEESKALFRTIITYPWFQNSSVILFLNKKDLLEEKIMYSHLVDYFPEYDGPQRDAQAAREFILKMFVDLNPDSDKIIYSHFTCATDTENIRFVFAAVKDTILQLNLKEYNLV
Briefly: Ubo-Qic sensitivity of the activation of mutant Gαq (BRET biosensor). The format is cell-based. The following applies: Gαq Phe75 to glycine; FIG. 5D.
Source text: (§2) Expression vectors: Receptors and G-proteins. The plasmid encoding AT1 R was a generous gift from Stéphane Laporte (McGill University, Montréal, Canada). Gαq, Gα11, Gα12, Gα13, Gα14, Gα15/16, GαoA, GαoB, Gαz, Gαs, Gαi1, Gαi2, Gαi3, Gβ1, TPαR, D2R and α1BAR were obtained from the cDNA Resource Center (cDNA.org). Plasmids encoding mutant Gα proteins including GαqG66K, GαqY67C and GαqF75G, were obtained by site-directed mutagenesis (PCR overlap) of the Gαq wild-type protein coding sequence using the primers depicted in Table I. The PCR fragments were digested with Acc65I+XhoI restriction enzymes and cloned in pCDNA3.1 Zeo(+) (from Invitrogen®, Carlsbad, Calif.) digested Acc65I+XhoI. […]
as §1, with “vehicle. […]” for “vehicle.”

Another assay has as its target T3, Gα12 (Homo sapiens, UniProt Q03113).
T3 construct: host or cells: HEK293
T3 sequence (Q03113 1-381): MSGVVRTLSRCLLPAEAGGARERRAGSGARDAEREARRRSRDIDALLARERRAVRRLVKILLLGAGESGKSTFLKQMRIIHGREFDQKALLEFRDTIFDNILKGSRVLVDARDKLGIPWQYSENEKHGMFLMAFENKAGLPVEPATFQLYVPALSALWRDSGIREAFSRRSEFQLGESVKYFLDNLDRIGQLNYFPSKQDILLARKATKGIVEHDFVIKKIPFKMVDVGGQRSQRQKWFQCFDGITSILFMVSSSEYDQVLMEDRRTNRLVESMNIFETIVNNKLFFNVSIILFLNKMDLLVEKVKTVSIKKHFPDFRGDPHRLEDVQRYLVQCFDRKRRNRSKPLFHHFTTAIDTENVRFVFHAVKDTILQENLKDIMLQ
Briefly: Ubo-Qic selectivity, TPαR-mediated G-protein activation (BRET biosensor). The format is cell-based. As to conditions: U-46619 100 nM, FIG. 5C. Here is the method: (§3) BRET assays in living cells. Cells seeded in 96-well plates were washed twice with Phosphate Buffered Saline (PBS), followed by Tyrode buffer addition (composition: 137 mM NaCl, 0.9 mM KCl, 1 mM MgCl2, 11.9 mM NaHCO3, 3.6 mM NaH2PO4, 25 mM HEPES, 5.5 mM Glucose and 1 mM CaCl2, pH 7.4). The cells were then treated with the different ligands or vehicle for the indicated times. The Rluc substrate, coelenterazine 400a, was added at a final concentration of 2.5 μM and cells were further incubated for an additional 5 minutes. BRET values were then collected using a Mithras™ LB940 Multimode Microplate Reader or a TRISTAR® LB942 Multimode Microplate Reader, equipped with the following filters: 400 nm±70 nm (energy donor) and 515 nm±20 nm (energy acceptor). BRET values were determined by calculating the ratio of the light emitted by GFP (515 nm) over the light emitted by the Rluc (400 nm). To determine the % of activation (Stim as % of basal), BRET values obtained for the agonist treated cells where expressed as a percentage of the BRET values obtained with the corresponding cells treated with vehicle.
(§4) G-protein inhibitors. BRET assays were performed as described previously, except that cells were pre-treated overnight at 37° C. with 100 ng/ml of pertussis toxin, or, for 20 minutes at 37° C. with 100 nM of Ubo-Qic.

Another assay concerns the target T4, Gα15/16 (Homo sapiens, UniProt P30679).
T4 construct: host or cells: HEK293
T4 sequence (P30679 1-374): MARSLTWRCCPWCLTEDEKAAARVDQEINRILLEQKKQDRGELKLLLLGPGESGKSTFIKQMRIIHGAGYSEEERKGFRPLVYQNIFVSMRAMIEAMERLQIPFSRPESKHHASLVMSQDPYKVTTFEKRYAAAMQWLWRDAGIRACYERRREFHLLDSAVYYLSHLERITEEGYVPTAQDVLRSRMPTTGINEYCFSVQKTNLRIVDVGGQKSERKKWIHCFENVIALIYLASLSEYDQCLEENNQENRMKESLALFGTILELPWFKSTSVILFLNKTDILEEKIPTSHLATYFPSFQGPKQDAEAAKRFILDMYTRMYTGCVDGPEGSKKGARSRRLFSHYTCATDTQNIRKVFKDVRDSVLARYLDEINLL
The description is as above. The format is cell-based. As to conditions: U-46619 100 nM, FIG. 5C. Here is the method: as §3, §4

Another assay deals with T5, Gα13 (Homo sapiens, UniProt Q14344).
T5 construct: host or cells: HEK293
T5 sequence (Q14344 1-377): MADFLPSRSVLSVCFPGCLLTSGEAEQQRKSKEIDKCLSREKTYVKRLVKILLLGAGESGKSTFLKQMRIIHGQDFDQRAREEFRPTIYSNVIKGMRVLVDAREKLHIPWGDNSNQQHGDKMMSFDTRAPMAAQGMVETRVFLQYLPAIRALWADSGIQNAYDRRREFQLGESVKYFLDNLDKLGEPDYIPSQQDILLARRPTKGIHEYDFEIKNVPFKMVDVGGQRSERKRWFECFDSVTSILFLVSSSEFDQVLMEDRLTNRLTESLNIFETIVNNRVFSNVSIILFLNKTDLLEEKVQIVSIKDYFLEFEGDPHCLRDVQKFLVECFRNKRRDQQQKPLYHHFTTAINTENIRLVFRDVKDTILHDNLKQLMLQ
Described as above. The format is cell-based. The following applies: U-46619 100 nM, FIG. 5C. Here is the method: as §3, §4

Another assay deals with T6, Gαq (Homo sapiens, UniProt P50148).
T6 construct: host or cells: HEK293
T6 sequence (P50148 1-359): T2 sequence (P50148 1-359 F75G) with G75F
The assay is described as follows: G-protein inhibitor pre-treatment, TPαR/Gαq BRET biosensor response. The format is cell-based. As to conditions: agonist U-46619, 100 nM Ubo-Qic for 20 minutes or 100 ng/ml pertussis toxin overnight, FIG. 5A. Here is the method:
as §3, §4

Assay [2] concerns Gαq substituted at position 67 (Y67C, Y67G, Y67S & Y67L). The assay is described as follows: Ubo-Qic sensitivity of the activation of mutant Gαq (BRET biosensor). The format is cell-based, human. The following applies: FIG. 5D.
Source text: as §2
as §1, with “vehicle. […]” for “vehicle.”

The target of a further assay is T7, Gαi1 (Homo sapiens, UniProt P63096).
T7 construct: host or cells: HEK293
Briefly: G-protein inhibitor pre-treatment, D2R/Gαi1 BRET biosensor response. The format is cell-based. As to conditions: D2R/Gαi1, agonist rotigotine; 100 nM Ubo-Qic for 20 minutes or 100 ng/ml pertussis toxin overnight; FIG. 5B. Here is the method:
as §3, §4

Changes are numbered by the printed parent chain. Starred links: 1 amine or outer side, 2 acyl side, 3 side chain; linkers in the order of their positions; H or OH if unused. Positions of bridges follow the written chain, without caps; N, C: chain ends. Non-standard residues stand in square brackets, D forms with d. Residues, ends and D or L forms follow the SMILES beside them. *: point of attachment. Leu(3R-OH,Nα-propionyl) = CCC(=O)N[C@H](C(=O)*)[C@H](O)C(C)C; X1 = CC(C)[C@@H](O[*:3])[C@H](N[*:1])C(=O)[*:2]; NMeT = CN[C@H](C(=O)O)[C@@H](C)O; dPhLac = O=C(O)[C@H](O)Cc1ccccc1; NMeA = CN[C@@H](C)C(=O)O; NMeDha = C=C(NC)C(=O)O

T7 sequence (P63096 whole entry): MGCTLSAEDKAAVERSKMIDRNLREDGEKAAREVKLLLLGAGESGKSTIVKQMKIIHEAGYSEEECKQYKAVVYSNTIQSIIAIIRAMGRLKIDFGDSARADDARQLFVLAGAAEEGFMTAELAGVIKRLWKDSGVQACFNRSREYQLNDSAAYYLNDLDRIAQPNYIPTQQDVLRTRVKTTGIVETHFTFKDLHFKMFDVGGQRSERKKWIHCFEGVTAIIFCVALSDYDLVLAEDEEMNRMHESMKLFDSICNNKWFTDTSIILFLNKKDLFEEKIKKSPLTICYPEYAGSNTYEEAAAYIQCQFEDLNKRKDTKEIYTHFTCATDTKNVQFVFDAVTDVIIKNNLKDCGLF

With [Asp^1, Val^5, Gly^8]-AngII [DVG], the “efficacy of G-protein activation relative to angiotensin II response” value in assay [1] is listed as “better efficacy for Gα12 activation than Gαq”.

As for `C=C1C(=O)N[C@@H](C)C(=O)N(C)[C@@H](C)C(=O)N[C@@H]([C@H](OC(=O)[C@@H](NC(=O)CC)[C@H](O)C(C)C)C(C)C)C(=O)N(C)[C@@H]([C@@H](C)OC)C(=O)O[C@H](C(C)C)[C@H](NC(C)=O)C(=O)O[C@H](Cc2ccccc2)C(=O)N1C` [Ubo-Qic, L-threonine,(3R)-N-acetyl-3-hydroxy-L-leucyl-(aR)-a-hydroxybenzenepropanoyl-2,3-idehydro-N-methylalanyl-L-alanyl-N-methyl-L-alanyl-(3R)-3-[[(2S,3R)-3-hydroxy-4-methyl-1-oxo-2-[(1-oxopropyl)amino]pentyl]oxy]-L-leucyl-N,O-dimethyl-,(7→1)-lactone (9CI)] (Ac-[X1][dPhLac][NMeDha]A[NMeA][X1](Leu(3R-OH,Nα-propionyl))[NMeT](Me); ester 1-C), the “inhibition of mutant Gαq activation” value at GαqF75G was “partial”. Also, the “sensitivity of G-protein activation to the inhibitor” value at Gα12, at Gα15/16 and on Gα13 was “insensitive” throughout. Also, at Gαq, the “effect of pre-treatment on the BRET response following agonist stimulation” value was “completely abolished”. For the same molecule, the “sensitivity of mutant Gαq activation to the inhibitor” value in assay [2] was “resistance”. In addition, the “effect of pre-treatment on the biosensor BRET response after agonist incubation” value on Gαi1 is reported as “no detectable effect”.

Values taken from patent US10877036B2, “Biosensor based on Gβγ-interacting proteins to monitor G-protein activation” (priority 2014, dated 2020).
